Read-outs that look alike come from different tables or passages of the source.
Key:
Format in all cases: in vivo, human
[1] = Plasma pharmacokinetics after single and multiple oral doses (non-compartmental analysis); conditions: patients with T2DM; for AUC(0-t): po, 100 mg
Experimental: This was a single-center, randomized, double-blind, placebo and positive-controlled, single and multiple oral-dose study. A total of 32 Chinese adults diagnosed with T2DM were recruited for this study and allocated into two dosage groups: 50 mg and 100 mg, each consisting of 16 participants. […] The positive control was designed as open label. […] Subjects underwent medication randomization on day -1, and were assigned the corresponding investigational products. They were orally administered to the drug once every morning on fasting condition for 14 consecutive days. […] After finished the dosing, another OGTT was performed on day 15. Blood samples were collected at designated time points for the analysis of PK/PD and exploratory indicators. Subjects were discharged after completion of the safety assessments on day 19. […] PK parameters were calculated using non-compartmental analysis with Phoenix WinNonlin (version 8.1, Certara, Co., Princeton, NJ, United States). Peak plasma concentration after administration (Cmax) and time to reach Cmax (Tmax) were obtained directly from the observed data, elimination half-life (t1/2) was calculated as ln2/λz using the best fit mode, where λz was the terminal elimination rate constant. Area under the plasma concentration-time curve from zero to the last measurable concentration (AUC0-t) was estimated using the linear trapezoidal method and AUC from zero to infinity (AUC0-∞) was calculated as AUC0-t+Ct/λz, where Ct was the last measured concentration. […] Apparent total plasma clearance after non-intravenous (CL/F) and apparent volume of distribution in terminal phase after non-intravenous (Vz/F) were calculated as Dose/AUC0-∞ and CL/λz, respectively.

plasma active GLP-1 = assay: Plasma active GLP-1 concentration change from baseline (ELISA); conditions: patients with T2DM
Experimental: Blood samples for GLP-1 activity evaluation were collected at the same time points as for PK. 2 mL blood samples were collected for GLP-1 activity detection (20 μL DPP-4i was added to blood-collecting tubes beforehand). The tubes were placed on ice until centrifugation. The blood samples were centrifuged at 2-8°C, 1500 g for 10 minutes within 1 hour after blood collection. After centrifugation, the blood samples were evenly divided into two aliquots and stored at -80 ± 10°C. Plasma active GLP-1 concentrations were determined using a validated ELISA method. Linear calibration curves were obtained in the concentration range of 0.017-276 pM ([31]).
The change of GLP-1 concentration from baseline (△GLP-1) was calculated as follows:
Δ [GLP-1] = [GLP-1] (t) - [GLP-1] (0)
The calculated parameters for GLP-1 activity were as follows: the baseline GLP-1 value before dosing (Baseline), Rmax, TRmax, AUEC0-t, AUEC0-24h, GLP-1 concentration change at 2 h after lunch (△GLP-1-6h), GLP-1 concentration change at 2 h after dinner (△GLP-1-12h), Rmin on day 14, and the average response on day 14 (Ravg).

[2] = test system: glucose, insulin, C-peptide, and glucagon; assay: Oral glucose tolerance test (OGTT): glucose, insulin, C-peptide, glucagon; conditions: patients with T2DM
Experimental: To assess the impact of investigational products on glucose, insulin, C-peptide, and glucagon, OGTT tests were conducted on day -1 and day 15 following a fasting period of more than 8 hours. Subjects received a 75 g oral glucose dose and blood samples (1.5 mL for glucose, 3.5 mL for insulin and C-peptide, 2 mL for glucagon) were collected at 0, 0.167, 0.5, 1, 1.5, 2, and 3 h after ingestion of glucose. The PD parameters (AUEC0-t) for glucose, insulin, C-peptide, and glucagon were calculated by using drug effect module of non-compartmental method with Phoenix WinNonlin.

[3] = Preliminary efficacy evaluation (FPG, 2 h PPG, HbA1c, GA); conditions: patients with T2DM; 100 mg once daily; day 14
Experimental: Blood samples for determination of fasting plasma glucose (FPG) and 2 hour postprandial plasma glucose (2 h PPG) were collected on day -2, day 7 and day 14. Additionally, blood samples for determination of glycated Hemoglobin A1C (HbA1c) and glycated Albumin (GA) were collected on day -2 and day 14. The changes of the above indexes relative to pre-treatment baseline (day -2) were evaluated and compared to investigate the preliminary efficacy of investigational product.

[4] = Safety and tolerability assessments (adverse events); conditions: patients with T2DM, 14 days
Experimental: Safety and tolerability were evaluated by monitoring adverse events (AEs), laboratory tests (including blood routine, urine routine, stool routine, blood biochemical test and coagulation function), vital signs, physical examination, 12-lead electrocardiogram and other indicators. AEs were monitored and collected throughout the study. Descriptive analysis of the type and intensity of AEs were conducted according to NCICTC AE5.0.

[5] = 100 mg oral once daily, day 14, median (range)
[6] = cetagliptin group (50 or 100 mg, n=20) / sitagliptin group (100 mg, n=8)

N[C@@H](CC(=O)N1CCn2c(nnc2C(F)(F)F)C1)Cc1cc(F)c(F)cc1F [Sitagliptin, sitagliptin, reference compound]
half-life ([1]; human, in vivo, 100 mg oral once daily, day 14): 547 ± 39.8 min
AUC(0-t) ([1]; human, plasma, 100 mg oral once daily, day 14, read-out: AUC0-24h): 3760 ± 748 ng·h/mL
AUC(0-t) ([1]; human, plasma, 100 mg oral once daily, day 14, read-out: AUC0-t): 4290 ± 783 ng·h/mL
AUC(0-t) ([1]; human, plasma, 100 mg oral, day 1, read-out: AUC0-24h): 3340 ± 522 ng·h/mL
AUC(0-inf) ([1]; human, plasma, 100 mg oral once daily, day 14): 4380 ± 789 ng·h/mL
Cmax ([1]; human, plasma, 100 mg oral once daily, day 14, read-out: Cmax,ss): 419 ± 137 ng/mL
Vd/F ([1]; human, plasma, 100 mg oral once daily, day 14, read-out: Vz,ss/F): 362 ± 75.9 L
Tmax ([1]; human, plasma, 100 mg oral, day 1, median (range), read-out: Tmax): 1.5 h
CLss/F ([1]; 100 mg oral once daily, day 14): 27.5 ± 5.12 L/h
Cavg ([1]; 100 mg oral once daily, day 14): 157 ± 31.2 ng/mL
Tmax,ss [1, 5]: 3.00 (0.500-5.00) h
Cmax ([1]; 100 mg oral, day 1): 394 ± 105 ng/mL
time of daily dosing after which steady-state conditions were reached ([1]; once daily dosing, trough concentrations days 7, 10, 14): 1 week
GLP-1 Baseline (value before dosing) (plasma active GLP-1; 100 mg group, day 1 before dosing): 0.442 ± 0.406 pM
R0h,ss (baseline plasma active GLP-1 on day 14) (plasma active GLP-1; 100 mg oral once daily, day 14): 1.700 ± 0.851 pM
△GLP-1-6h (change at 2 h after lunch) (plasma active GLP-1; 100 mg oral once daily, day 14): 6.553 ± 3.739 pM
△GLP-1-12h (change at 2 h after dinner) (plasma active GLP-1; 100 mg oral once daily, day 14): 5.775 ± 4.299 pM
△GLP-1 Ravg,ss (plasma active GLP-1; 100 mg oral once daily, day 14): 3.821 ± 2.361 pM
△GLP-1 Rmax,ss (plasma active GLP-1; 100 mg oral once daily, day 14): 8.080 ± 3.592 pM
R0h,ss (baseline plasma active GLP-1 on day 14) (plasma active GLP-1; 100 mg oral once daily, day 14, listed as sitagliptin): 1.700 pM
△GLP-1 TRmax,ss (plasma active GLP-1; [5]): 5.00 (5.00-6.00) h
△GLP-1-6h (change at 2 h after lunch) (plasma active GLP-1; 100 mg oral, day 1): 3.491 ± 1.703 pM
△GLP-1-12h (change at 2 h after dinner) (plasma active GLP-1; 100 mg oral, day 1): 3.764 ± 2.490 pM
△GLP-1 AUEC0-24h (plasma active GLP-1; 100 mg oral, day 1): 61.2 ± 28.6 pM·h
△GLP-1 Rmax (plasma active GLP-1; 100 mg oral, day 1): 5.901 ± 2.375 pM
△GLP-1 TRmax (plasma active GLP-1; 100 mg oral, day 1, median (range)): 7.00 (5.00-12.00) h
glucose AUEC0-t (OGTT) ([2]; 100 mg group, day -1 (baseline before dosing)): 44.07 ± 5.74 mmol·h/L
glucose AUEC0-t (OGTT) ([2]; day 15 after 100 mg once daily for 14 days): 43.40 ± 6.51 mmol·h/L
decrease of HbA1c compared with baseline [3]: 0.44%
intensity of drug-related adverse events ([4]; cetagliptin 50 or 100 mg, sitagliptin 100 mg): mild
number of drug-related AEs [4, 6]: 7 AEs
number of subjects reporting drug-related AEs [4, 6]: 3 subjects

— paper PMC10961402, “Safety, tolerability, pharmacokinetics and pharmacokinetic-pharmacodynamic modeling of cetagliptin in patients with type 2 diabetes mellitus” (Frontiers in Endocrinology, 2024)
